Laboratory results from US9440964B2, “Pesticidal compositions and processes related thereto” (Dow AgroSciences LLC, priority 2011, dated 2016).

Columns and labels:
Assay type in all cases: in vivo
BAW (Spodoptera exigua) = assay: Bioassay on Beet Armyworm (BAW), 128-well diet tray; details: percent mortality, second instar larvae, five to seven days; for pest or weed control at 50 µg/cm2: Spodoptera exigua, 168 h, 50 μg/cm^2 on diet, read-out: Rating BAW
Description: (§1) Certain molecules disclosed in this document were tested against BAW and CEW using procedures described in the following examples. In the reporting of the results, the “BAW & CEW Rating Table” was used (See Table Section).
Bioassays on BAW (Spodoptera exigua)
(§2) Trays were covered with a clear self-adhesive cover and held at 25° C., 14:10 light-dark for five to seven days. Percent mortality was recorded for the larvae in each well; activity in the eight wells was then averaged. The results are indicated in the table entitled “Table ABC: Biological Results” (See Table Section).

CEW (Helicoverpa zea) = assay: Bioassay on Corn Earworm (CEW), 128-well diet tray; details: percent mortality, second instar larvae, five to seven days; for pest or weed control at 50 µg/cm2 / pest or weed control at 0.5 µg/cm2: Helicoverpa zea, 168 h; for pest or weed control at 50 µg/cm2: 50 μg/cm^2 on diet, read-out: Rating CEW; for pest or weed control at 0.5 µg/cm2: 0.5 μg/cm^2 on diet, read-out: Rating CEW (*Tested at 0.5 μg/cm^2)
Description: as §1
Bioassays on CEW (Helicoverpa zea)
as §2

[1] = tested on: Yellow Fever Mosquito YFM (Aedes aegypti); assay: Bioassay on Yellow Fever Mosquito (YFM) larvae, 96-well plate; details: mortality of about 1 day-old larvae, scored after 3 days
Description: Certain molecules disclosed in this document were tested against YFM using procedures described in the following paragraph. In the reporting of the results, the “YFM Rating Table” was used (See Table Section).
Master plates containing 400 μg of a molecule dissolved in 100 μL of dimethyl sulfoxide (DMSO) (equivalent to a 4000 ppm solution) are used. A master plate of assembled molecules contains 15 μL per well. To this plate, 135 μL of a 90:10 water:acetone mixture is added to each well. A robot (Biomek® NXP Laboratory Automation Workstation) is programmed to dispense 15 μL aspirations from the master plate into an empty 96-well shallow plate (“daughter” plate). There are 6 reps (“daughter” plates) created per master. The created daughter plates are then immediately infested with YFM larvae.
The day before plates are to be treated, mosquito eggs are placed in Millipore water containing liver powder to begin hatching (4 g. into 400 ml). After the daughter plates are created using the robot, they are infested with 220 μL of the liver powder/larval mosquito mixture (about 1 day-old larvae). After plates are infested with mosquito larvae, a non-evaporative lid is used to cover the plate to reduce drying. Plates are held at room temperature for 3 days prior to grading. After 3 days, each well is observed and scored based on mortality.
The results are indicated in the table entitled “Table ABC: Biological Results” (See Table Section).

SMILES | pest or weed control at 50 µg/cm2 (BAW (Spodoptera exigua)) [%] | pest or weed control at 50 µg/cm2 (CEW (Helicoverpa zea)) [%] | Rating YFM [1] | pest or weed control at 0.5 µg/cm2 (CEW (Helicoverpa zea)) [%] | Rating BAW (**Tested at 12.5 μg/cm^2) (BAW (Spodoptera exigua); 12.5 μg/cm^2 on diet) | Rating CEW (**Tested at 12.5 μg/cm^2) (CEW (Helicoverpa zea); 12.5 μg/cm^2 on diet)
Cc1ccccc1N/C(S)=N/C(=O)Nc1ccc(-c2ncn(-c3ccc(OC(F)(F)F)cc3)n2)cc1 [Molecule A80] | 50 to 100 | 50 to 100 | B (More than 0-Less than 80) | – | – | –
COc1ccc(N/C(=N\C(=O)Nc2ccc(-c3ncn(-c4ccc(OC(F)(F)F)cc4)n3)cc2)SCOC(=O)C(C)C)cc1 [Molecule A62] | 50 to 100 | 50 to 100 | A (80-100) | – | – | –
Cc1cc(-c2ncn(-c3ccc(OC(F)(F)F)cc3)n2)ccc1NC(=O)/N=C(\S)Nc1ccccc1C(C)C [Molecule A122, N-[[(2-isopropyllphenyl)amino]thioxomethyl]-N′-(2-methyl(4-(1-(4-(trifluoromethoxy)phenyl)-1H-1,2,4-triazol-3-yl)phenyl))urea] | 50 to 100 | – | A (80-100) | 50 to 100 | – | –
CCCc1ccccc1N1C(=O)CS/C1=N\C(=O)Nc1ccc(-c2ncn(-c3ccc(OC(F)(F)F)cc3)n2)cc1 [Molecule A69] | 50 to 100 | – | A (80-100) | 50 to 100 | – | –
CCC(C)c1ccccc1N1C(=O)CS/C1=N\C(=O)Nc1ccc(-c2ncn(-c3ccc(OC(F)(F)F)cc3)n2)cc1 (centres unmarked) [Molecule A18, (Z)-1-(3-(2-(sec-butyl)phenyl)-4-oxothiazolidin-2-ylidene)-3-(4-(1-(4-(trifluoromethoxy)phenyl)-1H-1,2,4-triazol-3-yl)phenyl)urea] | 50 to 100 | 50 to 100 | A (80-100) | – | – | –
CCc1ccccc1N1C(=O)CS/C1=N\C(=O)Nc1ccc(-c2ncn(-c3ccc(OC(F)(F)F)cc3)n2)cc1 [Molecule A35] | 50 to 100 | 50 to 100 | A (80-100) | – | – | –
Cc1ccc(N2C(=O)CS/C2=N\C(=O)Nc2ccc(-c3ncn(-c4ccc(OC(F)(F)F)cc4)n3)cc2)c(Cl)c1 [Molecule A77] | 50 to 100 | – | B (More than 0-Less than 80) | 50 to 100 | – | –
Cc1cc(-c2ncn(-c3ccc(OC(F)(F)F)cc3)n2)ccc1NC(=O)/N=C1\SCC(=O)N1c1ccccc1C(C)C [Molecule A123, (Z)-1-(3-(2-isopropylphenyl)-4-oxothiazolidin-2-ylidene)-3-(2-methyl-4-(1-(4-(trifluoromethoxy)phenyl)-1H-1,2,4-triazol-3-yl)phenyl)urea] | 50 to 100 | – | A (80-100) | 50 to 100 | – | –
Cc1cccc(C)c1N/C(=N/C(=O)Nc1ccc(-c2ncn(-c3ccc(C(F)(F)F)cc3)n2)cc1)SCOC(=O)C(C)C [Molecule A3, (E)-(N′-(2,6-Dimethylphenyl)-N-(4-(1-(4-(trifluoromethyl)phenyl)-1H-1,2,4-triazol-3-yl)phenylcarbamoyl)carbamimidoylthio) methyl isobutyrate] | 50 to 100 | 50 to 100 | A (80-100) | – | – | –
COc1ccc(N2C(=O)CS/C2=N\C(=O)Nc2ccc(-c3ncn(-c4ccc(OC(F)(F)F)cc4)n3)cc2)c(C)c1 [Molecule A110] | 50 to 100 | – | A (80-100) | 50 to 100 | – | –
CC(C)c1ccccc1N/C(S)=N/C(=O)Nc1ccc(-c2ncn(-c3ccc(OC(F)(F)F)cc3)n2)cc1 [Molecule A48] | 50 to 100 | 50 to 100 | – | – | – | –
CC(C)C(=O)OCS/C(=N/C(=O)Nc1ccc(-c2ncn(-c3ccc(OC(F)(F)F)cc3)n2)cc1)Nc1c(F)cccc1F [Molecule A61] | 50 to 100 | 50 to 100 | – | – | – | –
CC(C)c1ccccc1N1C(=O)CS/C1=C(/C#N)C(=O)Nc1ccc(-c2ncn(-c3ccc(OC(F)(F)F)cc3)n2)cc1 [Molecule A31, (Z)-2-Cyano-2-(3-(2-isopropylphenyl)-4-oxothiazolidin-2-ylidene)-N-(4-(1-(4-(trifluoromethoxy)phenyl)-1H-1,2,4-triazol-3-yl)phenyl)acetamide] | 50 to 100 | 50 to 100 | – | – | – | –
O=C(/N=C(\S)Nc1ccccc1C1CC1)Nc1ccc(-c2ncn(-c3ccc(OC(F)(F)F)cc3)n2)cc1 [Molecule A63] | 50 to 100 | – | – | 50 to 100 | – | –
COc1ccc(N/C(=N/C(=O)Nc2ccc(-c3ncn(-c4ccc(OC(F)(F)F)cc4)n3)cc2)SCS[C@@H]2O[C@@H](C)[C@H](OC)[C@@H](OC)[C@H]2OC)c(C)c1 [Molecule A10, (Z)-(((2S,3R,4R,5S,6S)-3,4,5-Trimethoxy-6-methyltetrahydro-2H-pyran-2-yl)thio)methyl N-(4-methoxy-2-methylphenyl)-N′-((4-(1-(4-(trifluoromethoxy)phenyl)-1H-1,2,4-triazol-3-yl)phenyl)carbamoyl) carbamimidothioate] | 50 to 100 | 50 to 100 | – | – | – | –
COc1ccc(Cl)cc1N1C(=O)CS/C1=N\C(=O)Nc1ccc(-c2ncn(-c3ccc(OC(F)(F)F)cc3)n2)cc1 [Molecule A111] | 50 to 100 | – | – | 50 to 100 | – | –
Cc1c(F)cccc1N1C(=O)CS/C1=N\C(=O)Nc1ccc(-c2ncn(-c3ccc(OC(F)(F)F)cc3)n2)cc1 [Molecule A93] | 50 to 100 | – | – | 50 to 100 | – | –
CC(C)c1ccccc1N/C(S)=C/C(=O)Nc1ccc(-c2ncn(-c3ccc(OC(F)(F)F)cc3)n2)cc1 [Molecule A21, 3-((2-isopropylphenyl)amino)-3-thioxo-N-(4-(1-(4-(trifluoromethoxy)phenyl)-1H-1,2,4-triazol-3-yl)phenyl)propanamide] | 50 to 100 | 50 to 100 | – | – | – | –
COc1cc(C)c(N/C(S)=N/C(=O)Nc2ccc(-c3ncn(-c4ccc(OC(F)(F)F)cc4)n3)cc2)c(C)c1 [Molecule A50] | 50 to 100 | 50 to 100 | – | – | – | –
Cc1cc(C)c(N2/C(=N/C(=O)Nc3ccc(-c4ncn(-c5ccc(OC(F)(F)F)cc5)n4)cc3)SCC2C)c(C)c1 (centres unmarked) [Molecule A40] | – | – | – | – | A** (50-100) | A** (50-100)
CC(C)c1cccc(Cl)c1N1C(=O)CS/C1=N\C(=O)Nc1ccc(-c2ncn(-c3ccc(OC(F)(F)F)cc3)n2)cc1 [Molecule A85] | 50 to 100 | – | A (80-100) | 50 to 100 | – | –
Cc1ccccc1N1C(=O)CS/C1=N\C(=O)Nc1ccc(-c2ncn(-c3ccc(OC(F)(F)F)cc3)n2)cc1 [Molecule A65] | 50 to 100 | – | A (80-100) | 50 to 100 | – | –
Cc1cccc(Cl)c1N1C(=O)CS/C1=N\C(=O)Nc1ccc(-c2ncn(-c3ccc(OC(F)(F)F)cc3)n2)cc1 [Molecule A74] | 50 to 100 | – | – | 50 to 100 | – | –
Cc1cc(C)cc(N/C(S)=N/C(=O)Nc2ccc(-c3ncn(-c4ccc(OC(F)(F)F)cc4)n3)cc2)c1 [Molecule A100] | 50 to 100 | – | – | 50 to 100 | – | –
Cc1ccc(C(C)C)c(N2C(=O)CS/C2=N\C(=O)Nc2ccc(-c3ncn(-c4ccc(OC(F)(F)F)cc4)n3)cc2)c1 [Molecule A87] | 50 to 100 | – | – | 50 to 100 | – | –
COc1ccc(N/C(O)=C/C(=O)Nc2ccc(-c3ncn(-c4ccc(OC(F)(F)F)cc4)n3)cc2)c(C(C)C)c1 [Molecule A34, (Z)-3-hydroxy-3-(2-isopropyl-4-methoxyphenylamino)-N-(4-(1-(4-(trifluoromethoxy)phenyl)-1H-1,2,4-triazol-3-yl)phenyl)acrylamide] | 50 to 100 | 50 to 100 | A (80-100) | – | – | –
